Molecular target: T1, SoArsAB (Sporomusa ovata, UniProt F6MZ55+F6MZ56)
T1 sequence (F6MZ55 1-350): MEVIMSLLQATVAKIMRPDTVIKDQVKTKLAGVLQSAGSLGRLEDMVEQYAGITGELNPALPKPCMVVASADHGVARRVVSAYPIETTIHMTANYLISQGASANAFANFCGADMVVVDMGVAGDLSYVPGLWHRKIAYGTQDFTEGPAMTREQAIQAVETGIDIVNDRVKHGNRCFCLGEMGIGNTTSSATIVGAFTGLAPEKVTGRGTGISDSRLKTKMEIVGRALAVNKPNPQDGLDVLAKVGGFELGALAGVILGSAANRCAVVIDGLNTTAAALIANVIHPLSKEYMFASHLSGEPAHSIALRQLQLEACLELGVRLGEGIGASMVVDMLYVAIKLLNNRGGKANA
T1 sequence (F6MZ56 1-350): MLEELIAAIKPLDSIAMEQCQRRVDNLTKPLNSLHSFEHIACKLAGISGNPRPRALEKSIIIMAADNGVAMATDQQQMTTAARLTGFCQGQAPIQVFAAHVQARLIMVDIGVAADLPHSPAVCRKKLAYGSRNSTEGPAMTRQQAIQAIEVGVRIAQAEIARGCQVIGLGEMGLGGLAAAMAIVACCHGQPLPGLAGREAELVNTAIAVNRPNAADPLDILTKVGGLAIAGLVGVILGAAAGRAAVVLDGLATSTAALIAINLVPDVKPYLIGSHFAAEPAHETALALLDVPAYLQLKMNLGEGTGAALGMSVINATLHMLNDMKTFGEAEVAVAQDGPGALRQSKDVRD
Experiment: product
Assay type: biochemical
Conditions: NaMN co-substrate; 6 h incubation

Cc1ccc(O)cc1 [P, p-cresol]
product (alpha-p-cresolyl-ribotide) by RP-HPLC and ESI-MS: The product of SoArsAB when phenol, p-cresol, or DMB was used as substrate was purified

Reference: article PMC3182833 (Molecular microbiology, 2011)
